Test [1] deals with HCT-116 cells. In words: CCK-8 cell viability assay, HCT-116. Type of test: cell-based. The settings on record: Homo sapiens, mean (n = 3). As for the experimental part:
(§1) MCF-7 and HCT-116 cells were purchased from the Meilunbio Biotechnology Co., Ltd. (Dalian, China). Cells were cultured at 37 °C with 5% CO2, using DMEM or RPMI 1640 medium (Meilunbio, Dalian, China) with 10% (v/v) fetal bovine serum (Gibco, San Diego, CA, USA) and 1% (v/v) penicillin and streptomycin (Meilunbio, Dalian, China). CCK-8 assay was used to determine the inhibitory effect in vitro. In short, cells were incubated into 96-well plates at the rate of 5000 cells per well. After 24 h of incubation, 100 μL medium was added, which contained a specific concentration of the test compound. After 72 h, 10 μL CCK-8 regent was added and the plate was incubated at 37 °C, 5% CO2 for 1 h. The optical density of each hole at 450 nm was read by a BioTek TS-800 microplate reader. GraphPad Prism 9.3.1 software was used to calculate the IC50 value.
Background: Formazan colour is commonly taken as a measure of viable cells.

Test [2] deals with MCF-7 cells. The experiment in a line: CCK-8 cell viability assay, MCF-7. Type of test: cell-based. The settings on record: Homo sapiens, MCF7, 72 h, mean (n = 3). As for the experimental part:
as §1

In test [3] the target is T1, PI3Kα (Homo sapiens, UniProt P42336).
T1 construct: purchased SignalChem P27-122DH
The experiment in a line: ADP-Glo kinase assay, PI3Kα enzyme inhibition. The settings on record: for inhibition at 0.001 µM: at 1 nM; for IC50: mean (n = 2). Type of test: biochemical. On the procedure:
The enzymatic inhibitory assays of all target compounds against PI3Kα were performed with the ADP-Glo assay (Promega, Madison, WI, USA, catalog No. V9102/3). Briefly, compounds were continuously diluted to a certain concentration. […] The mixture was added to a 96-well plate and incubated in a dark place at ambient temperature for 40 min. Then, the kinase reaction was stopped by adding of ADP-Glo reagent and the plate was incubated again at ambient temperature for another 40 min. The kinase detection reagent was added and the signal was collected via PerkinElmer Envision plate reader (PE, Boston, MA, USA).
(In general: In ADP-Glo the light output rises with the ADP produced.)

T1 sequence (P42336 whole entry): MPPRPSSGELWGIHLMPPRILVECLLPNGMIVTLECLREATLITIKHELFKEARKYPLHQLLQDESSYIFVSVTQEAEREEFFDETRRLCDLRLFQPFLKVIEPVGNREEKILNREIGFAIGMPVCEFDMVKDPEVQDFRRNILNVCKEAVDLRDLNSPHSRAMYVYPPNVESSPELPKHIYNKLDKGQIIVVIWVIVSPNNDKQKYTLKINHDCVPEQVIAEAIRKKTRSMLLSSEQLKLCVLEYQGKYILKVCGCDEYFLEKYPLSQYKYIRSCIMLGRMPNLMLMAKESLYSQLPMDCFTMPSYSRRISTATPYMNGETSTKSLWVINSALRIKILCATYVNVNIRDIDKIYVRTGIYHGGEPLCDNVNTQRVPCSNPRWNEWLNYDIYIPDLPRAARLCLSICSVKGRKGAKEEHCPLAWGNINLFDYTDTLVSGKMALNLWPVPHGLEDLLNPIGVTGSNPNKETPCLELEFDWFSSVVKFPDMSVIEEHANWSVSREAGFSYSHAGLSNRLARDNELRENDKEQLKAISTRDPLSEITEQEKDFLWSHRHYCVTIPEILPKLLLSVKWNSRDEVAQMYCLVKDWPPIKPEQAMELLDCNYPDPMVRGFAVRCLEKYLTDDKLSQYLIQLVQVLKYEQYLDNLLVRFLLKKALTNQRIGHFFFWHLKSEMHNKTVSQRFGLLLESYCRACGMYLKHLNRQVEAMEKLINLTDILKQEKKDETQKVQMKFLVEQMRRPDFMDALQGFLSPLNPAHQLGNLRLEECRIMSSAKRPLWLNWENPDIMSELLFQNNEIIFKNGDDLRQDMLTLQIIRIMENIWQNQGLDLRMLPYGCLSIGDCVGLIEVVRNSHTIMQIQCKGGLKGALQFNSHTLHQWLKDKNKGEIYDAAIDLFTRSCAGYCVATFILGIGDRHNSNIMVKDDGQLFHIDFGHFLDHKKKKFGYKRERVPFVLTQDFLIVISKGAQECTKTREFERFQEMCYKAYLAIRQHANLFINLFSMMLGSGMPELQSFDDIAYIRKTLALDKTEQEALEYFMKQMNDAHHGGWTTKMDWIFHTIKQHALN
T1 sequence (P27986 whole entry partner): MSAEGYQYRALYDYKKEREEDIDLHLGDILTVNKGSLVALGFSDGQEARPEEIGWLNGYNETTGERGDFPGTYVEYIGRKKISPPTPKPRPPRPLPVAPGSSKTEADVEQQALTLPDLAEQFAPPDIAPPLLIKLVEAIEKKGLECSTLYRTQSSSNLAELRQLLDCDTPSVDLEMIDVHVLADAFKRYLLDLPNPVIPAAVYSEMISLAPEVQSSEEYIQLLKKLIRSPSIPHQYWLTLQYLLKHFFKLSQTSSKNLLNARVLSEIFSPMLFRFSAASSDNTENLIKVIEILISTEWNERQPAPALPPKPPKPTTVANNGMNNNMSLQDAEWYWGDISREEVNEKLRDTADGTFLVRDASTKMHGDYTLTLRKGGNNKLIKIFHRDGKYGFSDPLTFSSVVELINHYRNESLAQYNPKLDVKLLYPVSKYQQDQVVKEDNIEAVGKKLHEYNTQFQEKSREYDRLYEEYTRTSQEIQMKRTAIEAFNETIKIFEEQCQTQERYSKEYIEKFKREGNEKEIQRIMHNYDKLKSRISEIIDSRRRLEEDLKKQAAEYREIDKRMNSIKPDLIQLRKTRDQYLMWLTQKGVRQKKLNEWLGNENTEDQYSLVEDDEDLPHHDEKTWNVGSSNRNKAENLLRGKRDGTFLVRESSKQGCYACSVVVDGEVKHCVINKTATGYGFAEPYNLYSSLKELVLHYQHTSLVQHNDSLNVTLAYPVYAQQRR

For the compound `COc1ncc(-c2cnc3ncnc(N4CCOCC4)c3c2)cc1NS(=O)(=O)c1ccc(F)cc1F` [17e, N-(2-methoxy-5-(4-morpholinopyrido[2,3-d]pyrimidin-6-yl)pyridin-3-yl)2,4-difluorobenzenesulfonamide], the IC50 in test [1] (Table 2, 72 h) was 0.64 ± 0.2 µM; in test [2] (Table 2) it was 0.92 ± 0.41 µM. The inhibition at 0.001 µM in test [3] (Table 2) came out at 36%.
Turning to `CCCCNc1ncnc2ncc(-c3cnc(OC)c(NS(=O)(=O)c4ccc(F)cc4F)c3)cc12` [17c, N-(5-(4-(butylamino)pyrido[2,3-d]pyrimidin-6-yl)-2-methoxypyridin-3-yl)-2,4-difluorobenzenesulfonamide], the IC50 in test [1] (Table 2, 72 h) is 0.83 ± 0.25 µM; in test [2] (Table 2), > 1 µM. Also, 0.001 µM produced 21% inhibition in test [3] (Table 2).
For `COc1ncc(-c2cnc3ncnc(NCCO)c3c2)cc1NS(=O)(=O)c1ccc(F)cc1F` [17h, N-(5-(4-((2-hydroxyethyl)amino)pyrido[2,3-d]pyrimidin-6-yl)-2-methoxypyridin-3-yl)-2,4-difluorobenzenesulfonamide] the same measures were 0.69 ± 0.12 µM, 0.93 ± 0.48 µM and 24%.
`CCOC(=O)c1cnc(-c2ccnc3ccc(-c4cnc(OC)c(NS(=O)(=O)c5ccc(F)cc5F)c4)cc23)o1` [22a, Ethyl-2-(6-(5-((2,4-difluorophenyl)sulfonamido)-6-methoxypyridin-3-yl)quinolin-4-yl)oxazole-5-carboxylate]: the IC50 in test [1] (Table 3, 72 h) is > 1 µM; in test [2] (Table 3) it was > 1 µM. In test [3] (Table 3), this compound returned an inhibition at 0.001 µM of 20%.
For the compound `COc1ncc(-c2ccc3c(c2)sc2c(NCCO)ncnc23)cc1NS(=O)(=O)c1ccc(F)cc1F` [11c, N-(5-(4-((2-hydroxyethyl)amino)benzo[4,5]thieno[3,2-d]pyrimidin-7-yl)-2-methoxypyridin-3-yl) -2,4-difluoro-benzenesulfonamide], the IC50 in test [1] (Table 1, 72 h) worked out at 0.59 ± 0.18 µM; in test [2] (Table 1), 0.85 ± 0.37 µM. The compound also showed an inhibition at 0.001 µM in test [3] (Table 1) of 29%.
In the case of `COc1ncc(-c2ccc3nccc(-c4ncc(C(=O)NC5CC5)o4)c3c2)cc1NS(=O)(=O)c1ccc(F)cc1F` [22d, N-cyclopropyl-2-(6-(5-((2,4-difluorophenyl)sulfonamido)-6-methoxypyridin-3-yl)quinolin-4-yl)oxazole-5-carboxamide], the IC50 is 0.1 ± 0.06 µM in test [1] (Table 3, 72 h); 0.46 ± 0.11 µM in test [2] (Table 3); 0.22 nM in test [3]. The same compound registered an inhibition at 0.001 µM in test [3] (Table 3) of 82%.
As to `CCCCNc1ncnc2c1sc1cc(-c3cnc(OC)c(NS(=O)(=O)c4ccc(F)cc4F)c3)ccc12` [11i, N-(5-(4-(butylamino)benzo[4,5]thieno[3,2-d]pyrimidin-7-yl)-2-methoxypyridin-3-yl)-2,4-difluorobenzenesulfonamide], the IC50 in test [1] (Table 1, 72 h) is > 1 µM; in test [2] (Table 1), > 1 µM. The compound further showed an inhibition at 0.001 µM in test [3] (Table 1) of 15%.
Consider `COCCCNC(=O)c1cnc(-c2ccnc3ccc(-c4cnc(OC)c(NS(=O)(=O)c5ccc(F)cc5F)c4)cc23)o1` [22f, 2-(6-(5-((2,4-difluorophenyl)sulfonamido)-6-methoxypyridin-3-yl)quinolin-4-yl)-N-(3-methoxypropyl)oxazole-5-carboxamide], for which the IC50 in test [1] (Table 3, 72 h) amounted to 0.06 ± 0.02 µM; in test [2] (Table 3) it was 0.29 ± 0.1 µM; in test [3], 0.38 nM. Further, the inhibition at 0.001 µM in test [3] (Table 3) came out at 78%.
With `COc1ncc(-c2cnc3ncnc(NCC4CCCCC4)c3c2)cc1NS(=O)(=O)c1ccc(F)cc1F` [17k, N-(5-(4-((cyclohexylmethyl)amino)pyrido[2,3-d]pyrimidin-6-yl)-2-methoxypyridin-3-yl)-2,4-difluorobenzenesulfonamide], the IC50 in test [1] (Table 2, 72 h) was > 1 µM; in test [2] (Table 2), > 1 µM. The same compound had an inhibition at 0.001 µM in test [3] (Table 2) of 22%.
For `COCCCNc1ncnc2ncc(-c3cnc(OC)c(NS(=O)(=O)c4ccc(F)cc4F)c3)cc12` [17i, N-(2-methoxy-5-(4-((3-methoxypropyl)amino)pyrido[2,3-d]pyrimidin-6-yl)pyridin-3-yl)-2,4-difluorobenzenesulfonamide], the half-inhibitory concentration (IC50) in test [1] (Table 2, 72 h) is > 1 µM; in test [2] (Table 2), > 1 µM.

By IC50 is commonly meant the concentration at which inhibition is half-maximal. The term inhibition denotes the change of the read-out against control, counted positive when it falls. Lower therefore signals little suppression.

The values are drawn from PMC10054477, “Design, Synthesis, and Biological Evaluation of Sulfonamide Methoxypyridine Derivatives as Novel PI3K/mTOR Dual Inhibitors” (Pharmaceuticals, 2023).
